“And” between values parts separate entries of the source, which are not always exact repeats. Equal entries are not always repeated.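 Each compound was tested at five concentrations against cells in 96-well plates for 48 hours. GI50 marks 50% less growth. TGI: concentration producing complete growth inhibition.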

What all share (assay): growth of human tumour cells (NCI), 48 h
Assay [1] has as its system EKVX NSCLC.
Assay [2] has as its system SF-295 CNS.
The test system of assay [3] is NCI-H522 lung.
Assay [4] has as its system OVCAR-5 ovarian.
For assay [5], the system named is SK-OV-3 ovarian.
In assay [6] the test system is NCI/ADR-RES ovarian.
In assay [7] the test system is IGROV1 ovarian.
In assay [8] the test system is OVCAR-3 ovarian.
The subject of assay [9] is PC-3 prostate.
Assay [10] deals with OVCAR-8 ovarian.

With `N#Cc1cc(-c2cc3ccccc3o2)oc1N`, the GI50 is 2.83 µM in assay [1]; 2.22 µM in assay [2]; 2.41 µM in [3]; 4.34 µM in [4]; 2.38 µM in [5]; 3.71 µM in [6]. In addition, the GI50 in assay [7] was 1.76 µM; in assay [8] it was 1.98 µM; in [9], 2.73 µM; in [10] it was 4.32 µM. Also, the TGI in [1] was 14.1 µM; in assay [2], 4.97 µM; in assay [3], 12.6 µM; in assay [4] it was 30.6 µM; in assay [5], 7.15 µM; in assay [6] it was above 100 µM. Moreover, the TGI was 6.35 µM in [7], 6.38 µM in assay [8], 6.85 µM in assay [9] and above 100 µM in assay [10].
In the case of `NC(=O)c1cc(Cl)ccc1NC(=O)/C=C/c1ccccc1`, the GI50 is 2.83 µM in [1]; 2.58 µM in [2]; 1.81 µM in assay [3]; 4.3 µM in assay [5]; 2.63 µM in [6]; 3.03 µM in assay [7]. Further, the figures for the GI50 in assay [8], in assay [9] and in assay [10] were 1.3 µM, 3.2 µM and 4.7 µM, respectively. In addition, the TGI in assay [1] was above 100 µM; in assay [2], above 25.6 µM; in assay [3], 6.42 µM; in assay [4], above 58.7 µM; in [5], above 35.5 µM; in assay [6], above 26.9 µM. The TGI in assay [7] was above 100 µM; in [8] it was 2.89 µM; in assay [9], above 100 µM; in [10], above 100 µM.
`CN1CCc2nc(N)nc(-c3nc(N)nc4c3CN(C)CC4)c2C1`: the TGI in [1], in [2], in assay [3], in assay [4], in assay [5] and in assay [6] was above 100 µM in each case. For the same compound, the TGI in [7], in assay [8], in [9] and in assay [10] was above 100 µM in each case.
For `C=C1C(=O)O[C@H]2[C@H]1CC/C(COC(=O)NCCCCNC(=O)OC/C1=C/CC[C@@]3(C)O[C@H]3[C@H]3OC(=O)C(=C)[C@@H]3CC1)=C\CC[C@@]1(C)O[C@@H]21`, the GI50 is 3.69 µM in assay [1]; 13 µM in [2]; 0.167 µM in [3]; 1.75 µM in assay [4]; 12.7 µM in assay [5]; 37.7 µM in assay [6]. The GI50 in [7] was 3.32 µM; in [8] it was 0.693 µM; in [9] it was 2.55 µM; in assay [10] it was 2.18 µM. Further, the TGI in [1] is 13.5 µM; in assay [2], 27.4 µM; in [3], 0.375 µM; in assay [4], 3.69 µM; in [5], 25.3 µM; in [6] it was above 100 µM. Also, the TGI stood at 12.4 µM in assay [7], 2.01 µM in [8], 8.05 µM in assay [9] and 8.26 µM in assay [10].
Regarding `CC1=CC(=O)C=CC1=O`, the GI50 was 17 µM in [1]; 50.3 µM and 22.7 µM in assay [2]; 11.2 µM and 1.67 µM in assay [3]; 21.4 µM in assay [4]; 37.5 µM and 25.5 µM in assay [5]; 20.6 µM and 24 µM in assay [6]. The GI50 in [7] was 18.1 µM and 18.2 µM; in [8] it was 3.96 µM; in [9] it was 15.7 µM; in assay [10], 17.7 µM. Moreover, the TGI in assay [1] is 39.6 µM; in assay [2], 64.3 µM; in assay [3], 24 µM and 4.1 µM; in [4], 39.5 µM; in assay [5], 93.8 µM; in assay [6] it was 43 µM and 64.4 µM. Further, the TGI in [7] stood at 43 µM; in assay [8], 13.3 µM; in [9], 39.4 µM; in [10] it was 41.4 µM.
Regarding `Cc1cc2ncnn2cc1Nc1ncc2c(n1)n(C1CCOCC1)c(=O)n2C`, the GI50 in [1] was 10.8 µM; in assay [2], 4.98 µM; in assay [3], 3.74 µM; in assay [4] it was 5.81 µM; in assay [5], 2.15 µM; in assay [6], 19.9 µM. Further, the GI50 in assay [7] is 3.19 µM; in assay [8], 6.22 µM; in [9], 2.73 µM; in [10] it was 11.5 µM. Moreover, the TGI was above 100 µM in assay [1]; 48 µM in assay [2]; above 100 µM in assay [3]; above 100 µM in assay [4]; 15.2 µM in assay [5]; above 100 µM in assay [6]. Besides, the TGI in [7] is 25.5 µM; in assay [8], 72 µM; in [9], above 100 µM; in assay [10] it was above 100 µM.
Consider `O=C1/C(=C(/c2ccccc2)N2CCOCC2)Cc2ccccc21`, for which the GI50 is 3.21 µM in assay [1]; 12.2 µM in assay [2]; 0.492 µM in assay [3]; 3.26 µM in assay [4]; 23.1 µM in [5]; 4.68 µM in [6]. Moreover, the GI50 in assay [7] was 1.46 µM; in assay [8] it was 0.479 µM; in assay [9], 1.64 µM; in [10] it was 3.9 µM. Moreover, the TGI in [1] was determined as 13.5 µM; in [2], 28 µM; in assay [3], 1.89 µM; in assay [4] it was 9.57 µM; in [5] it was 72.6 µM; in [6], 21.4 µM. Also, the TGI came to 3.61 µM in assay [7], 1.5 µM in [8], 6.15 µM in [9] and 13.7 µM in [10].
Turning to `CCCC(CCC)NCC(O)c1cc(-c2ccc(C(F)(F)F)cc2)nc(C(F)(F)F)c1` (centres undefined), the GI50 is 2.01 µM in assay [1]; 1.99 µM in assay [2]; 1.71 µM in assay [3]; 1.55 µM in [4]; 1.75 µM in [5]; 1.63 µM in assay [6]. Further, the GI50 is 2.09 µM in assay [7], 1.93 µM in [8], 1.75 µM in assay [9] and 1.83 µM in assay [10]. Moreover, the TGI in [1] was determined as 3.81 µM; in assay [2], 3.78 µM; in assay [3] it was 3.26 µM; in [4] it was 2.95 µM; in assay [5], 3.22 µM; in [6], 3.25 µM. Further, the TGI is 4.09 µM in [7], 3.38 µM in assay [8], 3.33 µM in assay [9] and 3.68 µM in assay [10].

Values taken from PubChem BioAssay (NCI).
